Data published in US9663528B2, “Substituted 1,2,3,4,6,8,12,12a-octahydro-1,4-methanodipyrido[1,2-a:1',2'-d]pyrazines and methods for treating viral infections” (priority 2012, dated 2017).

How the values were obtained:
PXR = PXR (Homo sapiens (Human), UniProt O75469); test: Human PXR activation assay (luciferase reporter gene assay, DPX2 cells); assay type: cell-based; details: human
Description: A stably transformed tumor cell line (DPX2) was plated on 96-well microtiter plates. DPX2 cells harbor the human PXR gene (NR112) and a luciferase reporter gene linked to two promoters identified in the human CYP3A4 gene, namely XREM and PXRE. […] The number of viable cells was determined and the reporter gene activity was assessed. Positive control: […]

[1] = Pharmacokinetic analysis following intravenous administration to beagle dogs; assay type: in vivo; details: male, dog, 0.5 mg/kg; for MRT / clearance: beagle, in vivo, iv; for Vd: plasma, beagle dogs, IV infusion over 30 min, read-out: Vss
Description: Pharmacokinetic analysis was performed on various test compounds following intravenous or oral administration to beagle dogs.
For pharmacokinetic analysis of intravenously administered compounds, the test compounds were formulated in 5% Ethanol, 55% PEG 300, and 40% water at 0.1 mg/mL for IV infusion. For pharmacokinetic analysis of orally administered compounds, the test compounds were formulated as an aqueous suspension in 0.1% Tween 20, 0.5% HPMC LV 100 in Di Water at 1 mg/kg.
Each dosing group consisted of 3 male, non-naïve purebred beagle dogs. At dosing, the animals weighed between 10 to 13 kg. The animals were fasted overnight prior to dose administration and up to 4 hr after dosing. For studies of intravenous administration, the test article was administered to the animals by intravenous infusion over 30 min. The rate of infusion was adjusted according to the body weight of each animal to deliver a dose of 0.5 mg/kg. For studies of oral administration, the test article was administered according to the body weight of each animal to deliver a dose of 1 mg/kg.
For pharmacokinetic analysis of intravenously administered compounds, serial venous blood samples (approximately 1 mL each) were taken from each animal at 0, 0.250, 0.483, 0.583, 0.750, 1.00, 1.50, 2.00, 4.00, 8.00, 12.0, and 24.0 hours after dosing. The blood samples were collected into Vacutainer™ tubes containing EDTA-K2 as the anti-coagulant and were immediately placed on wet ice pending centrifugation for plasma. An LC/MS/MS method was used to measure the concentration of the test compound in plasma. An aliquot of 100 μL of each plasma sample was added to a clean 96 well plate, and 400 μL of cold acetonitrile/internal standard solution (ACN)/(ISTD) was added. After protein precipitation, an aliquot of 110 μL of the supernatant was transferred to a clean 96-well plate and diluted with 300 μL of water. An aliquot of 25 μL of the above solution was injected into a TSQ Quantum Ultra LC/MS/MS system utilizing a Hypersil Gold C18 HPLC column (50×3.0 mm, 5 μm; Thermo-Hypersil Part #25105-053030). An Agilent 1200 series binary pump (P/N G1312A Bin Pump) was used for elution and separation, and an HTS Pal autosampler (LEAP Technologies, Carrboro, N.C.) was used for sample injection. A TSQ Quantum Ultra triple quadrupole mass spectrometer was utilized in selective reaction monitoring mode (Thermo Finnigan, San Jose, Calif.). Liquid chromatography was performed using two mobile phases: mobile phase A contained 1% acetonitrile in 2.5 mM ammonium formate aqueous solution with pH of 3.0, and mobile phase B contained 90% acetonitrile in 10 mM ammonium formate with pH of 4.6. Non-compartmental pharmacokinetic analysis was performed on the plasma concentration-time data. The resulting data are shown in the first three columns of Table 4. In Table 4, CL refers to clearance, which characterizes the rate at which drug is removed from plasma. The lower the clearance of a drug is, the longer the elimination half-life is in the body. Vss refers to the steady state volume of distribution and indicates how well a drug is distributed into the tissues. The larger the Vss is, the longer the elimination half-life is in the body. MRT refers to mean residence time, which is a measure of the average time molecules exist in the body.

in vitro = details: human, CC50 nM in MT-4

Chain of PXR (O75469 whole entry): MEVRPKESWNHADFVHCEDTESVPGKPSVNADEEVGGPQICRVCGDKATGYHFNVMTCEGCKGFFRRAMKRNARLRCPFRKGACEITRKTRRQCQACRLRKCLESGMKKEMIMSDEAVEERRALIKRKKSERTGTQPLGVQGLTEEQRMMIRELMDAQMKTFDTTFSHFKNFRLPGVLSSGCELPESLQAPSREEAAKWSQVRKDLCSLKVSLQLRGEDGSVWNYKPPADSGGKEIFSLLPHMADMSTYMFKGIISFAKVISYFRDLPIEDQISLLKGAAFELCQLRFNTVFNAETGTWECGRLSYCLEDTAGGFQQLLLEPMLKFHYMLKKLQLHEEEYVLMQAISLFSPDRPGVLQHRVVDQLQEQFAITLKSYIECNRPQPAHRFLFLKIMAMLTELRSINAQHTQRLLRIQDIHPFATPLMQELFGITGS

Compound | Emax at 24 h, 15 µM (PXR) [%] | MRT [1] [h] | clearance [1] [mL/min/kg] | Vd [1] [L/kg] | CC50 at 5 days (in vitro) [nM]
O=C(NCc1ccc(F)cc1F)c1cn2c(c(O)c1=O)C(=O)N1C(C2)O[C@H]2CCC[C@@H]1C2 (stereo partly drawn) [Compound 7, (2S,6R)-N-(2,4-difluorobenzyl)-9-hydroxy-8,10-dioxo-3,4,5,6,8,10,14,14a-octahydro-2H-2,6-methanopyrido[1′,2′:4,5]pyrazino[2,1-b][1,3]oxazocine-11-carboxamide] | 6 | 2.3 | 8.5 | 1.2 | 15600
O=C(NCc1ccc(F)cc1F)c1cn2c(c(O)c1=O)C(=O)N1C(C2)O[C@@H]2CCC[C@H]1C2 (stereo partly drawn) [Compound 8, (2R,6S)-N-(2,4-difluorobenzyl)-9-hydroxy-8,10-dioxo-3,4,5,6,8,10,14,14a-octahydro-2H-2,6-methanopyrido[1′,2′:4,5]pyrazino[2,1-b][1,3]oxazocine-11-carboxamide] | 7 | 1.8 | 8.3 | 0.87 | 13900
O=C(NCc1ccc(F)c(Cl)c1)c1cn2c(c(O)c1=O)C(=O)N1[C@H]3CC[C@H](C3)[C@@H]1C2 [Compound 75, (1R,4S,12aR)-N-(3-chloro-4-fluorobenzyl)-7-hydroxy-6,8-dioxo-1,2,3,4,6,8,12,12a-octahydro-1,4-methanodipyrido[1,2-a:1′,2′-d]pyrazine-9-carboxamide] | 0 |  |  |  | 5290
O=C(NCc1cc(F)c(F)cc1F)c1cn2c(c(O)c1=O)C(=O)N1[C@H]3CC[C@H](C3)[C@@H]1C2 [Compound 79, (1R,4S,12aR)-7-hydroxy-6,8-dioxo-N-(2,4,5-trifluorobenzyl)-1,2,3,4,6,8,12,12a-octahydro-1,4-methanodipyrido[1,2-a:1′,2′-d]pyrazine-9-carboxamide] | 0 |  |  |  | 12100
O=C(NCc1cc(Cl)c(F)cc1F)c1cn2c(c(O)c1=O)C(=O)N1[C@H]3CC[C@H](C3)[C@@H]1C2 [Compound 80, (1R,4S,12aR)-N-(5-chloro-2,4-difluorobenzyl)-7-hydroxy-6,8-dioxo-1,2,3,4,6,8,12,12a-octahydro-1,4-methanodipyrido[1,2-a:1′,2′-d]pyrazine-9-carboxamide] | 2 |  |  |  | 5040
O=C(NCc1c(F)cc(F)cc1F)c1cn2c(c(O)c1=O)C(=O)N1[C@H](C2)[C@H]2C[C@H](F)[C@@H]1C2 [Compound 81, (1R,3S,4S,12aS)-3-fluoro-7-hydroxy-6,8-dioxo-N-(2,4,6-trifluorobenzyl)-1,2,3,4,6,8,12,12a-octahydro-1,4-methanodipyrido[1,2-a:1′,2′-d]pyrazine-9-carboxamide] | 1 |  |  |  | 12300
C[C@@H]1C[C@H]2C[C@@H]1[C@@H]1Cn3cc(C(=O)NCc4c(F)cc(F)cc4F)c(=O)c(O)c3C(=O)N21 [Compound 84, (1S,2R,4S,12aR)-7-hydroxy-2-methyl-6,8-dioxo-N-(2,4,6-trifluorobenzyl)-1,2,3,4,6,8,12,12a-octahydro-1,4-methanodipyrido[1,2-a:1′,2′-d]pyrazine-9-carboxamide] | 21 |  |  |  | 9730
O=C(NCc1c(F)cc(F)cc1F)c1cn2c(c(O)c1=O)C(=O)N1[C@H]3CCC[C@H](C3)[C@H]1C2 [Compound 85, (6aS,7R,11S)-1-hydroxy-2,13-dioxo-N-(2,4,6-trifluorobenzyl)-6,6a,7,8,9,10,11,13-octahydro-2H-7,11-methanopyrido[1′,2′:4,5]pyrazino[1,2-a]azepine-3-carboxamide] | 77 |  |  |  | 10400
C[C@H]1C[C@@H]2C[C@H]1N1C(=O)c3c(O)c(=O)c(C(=O)NCc4c(F)cc(F)cc4F)cn3C[C@H]21 [Compound 86, (1R,3S,4R,12aS)-7-hydroxy-3-methyl-6,8-dioxo-N-(2,4,6-trifluorobenzyl)-1,2,3,4,6,8,12,12a-octahydro-1,4-methanodipyrido[1,2-a:1′,2′-d]pyrazine-9-carboxamide] | 30 |  |  |  | 22400
O=C(NCc1cccc(Cl)c1F)c1cn2c(c(O)c1=O)C(=O)N1[C@H]3CC[C@H](C3)O[C@@H]1C2 [Compound 88, (2R,5S,13aR)-N-(3-chloro-2-fluorobenzyl)-8-hydroxy-7,9-dioxo-2,3,4,5,7,9,13,13a-octahydro-2,5-methanopyrido[1′,2′:4,5]pyrazino[2,1-b][1,3]oxazepine-10-carboxamide] | 27 |  |  |  | 3230
O=C(NCc1cc(F)ccc1F)c1cn2c(c(O)c1=O)C(=O)N1[C@H]3CC[C@H](C3)O[C@@H]1C2 [Compound 89, (2R,5S,13aR)-N-(2,5-difluorobenzyl)-8-hydroxy-7,9-dioxo-2,3,4,5,7,9,13,13a-octahydro-2,5-methanopyrido[1′,2′:4,5]pyrazino[2,1-b][1,3]oxazepine-10-carboxamide] | 5 |  |  |  | 4630
O=C(NCc1cccc(Cl)c1F)c1cn2c(c(O)c1=O)C(=O)N1[C@H]3CC[C@H](C3)[C@@H]1C2 [Compound 90, (1R,4S,12aR)-N-(3-chloro-2-fluorobenzyl)-7-hydroxy-6,8-dioxo-1,2,3,4,6,8,12,12a-octahydro-1,4-methanodipyrido[1,2-a:1′,2′-d]pyrazine-9-carboxamide] | 11 |  |  |  | 8090
O=C(NCc1ccc(F)c(F)c1F)c1cn2c(c(O)c1=O)C(=O)N1[C@H]3CC[C@H](C3)[C@@H]1C2 [Compound 91, (1R,4S,12aR)-7-hydroxy-6,8-dioxo-N-(2,3,4-trifluorobenzyl)-1,2,3,4,6,8,12,12a-octahydro-1,4-methanodipyrido[1,2-a:1′,2′-d]pyrazine-9-carboxamide] | 3 |  |  |  | 7180
O=C(NCc1ccc(Cl)cc1F)c1cn2c(c(O)c1=O)C(=O)N1[C@H]3CC[C@H](C3)[C@@H]1C2 [Compound 92, (1R,4S,12aR)-N-(4-chloro-2-fluorobenzyl)-7-hydroxy-6,8-dioxo-1,2,3,4,6,8,12,12a-octahydro-1,4-methanodipyrido[1,2-a:1′,2′-d]pyrazine-9-carboxamide] | 3 |  |  |  | 4550
O=C(NCc1c(F)cc(F)cc1Cl)c1cn2c(c(O)c1=O)C(=O)N1[C@H]3CC[C@H](C3)[C@@H]1C2 [Compound 93, (1R,4S,12aR)-N-(2-chloro-4,6-difluorobenzyl)-7-hydroxy-6,8-dioxo-1,2,3,4,6,8,12,12a-octahydro-1,4-methanodipyrido[1,2-a:1′,2′-d]pyrazine-9-carboxamide] | 9 |  |  |  | 6160
O=C(NCc1c(F)cc(F)cc1F)c1cn2c(c(O)c1=O)C(=O)N1[C@@H]3C[C@@H](C(F)C3F)[C@@H]1C2 (stereo partly drawn) [Compound 103, (1R,4R,12aR)-2,3-difluoro-7-hydroxy-6,8-dioxo-N-(2,4,6-trifluorobenzyl)-1,2,3,4,6,8,12,12a-octahydro-1,4-methanodipyrido[1,2-a:1′,2′-d]pyrazine-9-carboxamide] | 0 |  |  |  | 35100
